# Assay results from patent EP0923292B1, “IMPROVED METHOD FOR SYSTEMIC ADMINISTRATION OF 2,4-DIENOIC ACID-TYPE INSECTICIDES TO TERRESTRIAL MAMMALS” (priority 1996, dated 1998).
# Read-outs that look alike come from different tables or passages of the source.
# Assays:
# C. felis = assay: Systemic ovicidal activity upon oral administration (initial bolus plus daily diet) to host dogs (Example 3); assay type: in vivo, C. felis (host: dogs); conditions: eggs collected from the dogs, week 4
# Text: Eleven days before the administration of the first gelatin capsule (i.e., on Day -11), and weekly thereafter through Day 59, each dog was infested with approximately 200 one-to two-week-old, unfed adult C. fells fleas of mixed sex ratio. Each dog was restrained for about one minute while the fleas were released along the dorsum.
# Flea eggs were collected on Days -7, 0, 1, 2, 4, 7, and weekly thereafter through Day 63. Prior to egg collection, the cages in which the dogs were housed and the collection trays were rinsed with isopropyl alcohol, and the water was turned off, feed bowls and resting pads were removed from each cage. […] Using a dissecting microscope and a fine tipped artist brush, 100 flea eggs were counted from the sweepings of each dog and separated into four replicates of 25 eggs each. […] Seventy two hours after collection, larvae emergence was determined. Both dead and live larvae were counted to determine the ovicidal effect of the treatment. […]
# Three days prior to the week 4 data point, each dog was infested with fleas in the manner described in Example 2. At week 4, flea eggs were collected from the dogs themselves in the manner described in Example 2, and the percent inhibition of egg hatch for the fleas collected in this manner was determined as in Example 2.
# adult cat fleas = assay: Flea ovicidal activity in vitro: artificial feeding system with treated beef blood (Examples 4 and 6); parameters: species or system C. felis; conditions: Ctenocephalides felis; for inhibition at 0.05 ppm: 0.05 ppm in beef blood; for inhibition at 0.075 ppm: 0.075 ppm in beef blood; for inhibition at 0.1 ppm: 0.1 ppm in beef blood; for inhibition at 0.25 ppm: 0.25 ppm in beef blood; for inhibition at 0.5 ppm: 0.5 ppm in beef blood
# Text: For the in vitro tests, an artificial feeding system with cages for adult cat fleas C. felis was used as described by Wade, S.E., et al., J. Med. Ent. 25(3): 186-190 (May 1988). Inside each cage were placed 100 one-week-old, unfed adult C. fells. Each cage included a container for treated blood separated from the fleas by a PARAFILM® membrane, and a compartment containing thin strips of paper to support loosely arranged clean dog hair and to provide a foothold for the fleas as they fed on the blood through the membrane.
# The artificial feeding system and cages for adult cat fleas described in Example 3 were used. Beef blood was used for the feeding system, and was prepared by adding 35 mL of a 20% sodium citrate solution per liter of blood to prevent clotting. A stock solution of lufenuron was prepared by adding 50.1 mg of technical lufenuron to 4.951 g of dimethyl sulfoxide (DMSO) to yield a 1.0% solution. A 1,000 ppm solution was then prepared by diluting 1.0 mL of the 1.0% solution in 9.0 mL of DMSO, and a 100 ppm solution was prepared by diluting 1.0 mL of the 1,000 ppm solution in 9.0 mL of DMSO. Dimethyl sulfoxide itself was used as a control. To treat the blood, the various solutions (0.05 mL) were added to the citrated beef blood (100.0 mL) to yield beef blood solutions containing 5.0 ppm, 0.5 ppm, 0.05 ppm, and 0.00 (zero) ppm lufenuron. Each solution was mixed thoroughly, and 10 mL at each concentration were placed in each of five feeders in the artificial feeding system to serve as replicates. Each day fresh blood solutions identical to the originals were placed in the feeders.
# Flea eggs were collected from each replicate on days 3, 5 and 7. One hundred (100) healthy appearing […] were counted under a dissecting microscope from each replicate, divided into two subsamples per replicate, and placed in 60 mm x 15 mm plastic petri dishes. The samples were incubated at 78°F and 85% relative humidity for three days, then scored for larval hatch using by visual observation through the dissecting microscope. The data from all replicates at each concentration were combined to yield the mean percent egg hatch, and the percent inhibition of egg hatch was calculated relative to the control.
# Retuming to (S)-methoprene, this example presents in vitro flea ovicidal activity using beef blood, for comparison with Example 4. Procedures using beef blood were the same as those indicated in the previous examples.
# [1] = (S)-Methoprene concentration in rat blood upon in vivo administration (radioassay/TLC); conditions: average of three animals
# [2] = average over days, read-out: Percent Inhibition of Flea Egg Hatching, averages
# [3] = 72 h, day 3, read-out: Percent Inhibition of Flea Egg Hatching
# [4] = 120 h, day 5, read-out: Percent Inhibition of Flea Egg Hatching
# [5] = 144 h, day 6, read-out: Percent Inhibition of Flea Egg Hatching
# [6] = 240 h, day 10, read-out: Percent Inhibition of Flea Egg Hatching
compound,measurement,setting,value
"COC(C)(C)CCC[C@H](C)C/C=C/C(C)=C/C(=O)OC(C)C [(S)-Methoprene, 1-isopropyl (E,E)-11-methoxy-3,7,11-trimethyl dodecadi-2,4-enoate]",Percent Inhibition of Flea Egg Hatching,C. felis; initial bolus 25 mg/kg then daily diet 0.01% (S)-methoprene,100%
same,Percent Inhibition of Flea Egg Hatching,C. felis; initial bolus 50 mg/kg then daily diet 0.02% (S)-methoprene,100%
same,inhibition at 0.05 ppm,adult cat fleas; [2],56.4%
same,inhibition at 0.075 ppm,"adult cat fleas; average of a and b, read-out: Percent Inhibition of Flea Egg Hatching, averages",72%
same,inhibition at 0.1 ppm,adult cat fleas; [2],96.6%
same,inhibition at 0.25 ppm,adult cat fleas; [2],99.5%
same,inhibition at 0.5 ppm,adult cat fleas; [2],99.8%
same,inhibition at 0.05 ppm,adult cat fleas; [3],47.3%
same,inhibition at 0.5 ppm,adult cat fleas; [3],99.1%
same,inhibition at 0.1 ppm,adult cat fleas; [4],97.4%
same,inhibition at 0.25 ppm,adult cat fleas; [4],100%
same,inhibition at 0.1 ppm,adult cat fleas; [5],95.7%
same,inhibition at 0.25 ppm,adult cat fleas; [5],99%
same,inhibition at 0.5 ppm,"adult cat fleas; 168 h, day 7, read-out: Percent Inhibition of Flea Egg Hatching",100%
same,inhibition at 0.075 ppm,"adult cat fleas; 192 h, day 8, entry a, read-out: Percent Inhibition of Flea Egg Hatching",66%
same,inhibition at 0.075 ppm,"adult cat fleas; 192 h, day 8, entry b, read-out: Percent Inhibition of Flea Egg Hatching",78%
same,inhibition at 0.05 ppm,adult cat fleas; [6],65.4%
same,inhibition at 0.5 ppm,adult cat fleas; [6],100%
same,inhibition at 0.5 ppm,"adult cat fleas; 312 h, day 13, read-out: Percent Inhibition of Flea Egg Hatching",100%
same,(S)-Methoprene Concentration in Blood,"[1]; Group A 10 mg/kg I.V., 0.5 hours",0.703 ± 0.307 ppm
same,(S)-Methoprene Concentration in Blood,"[1]; Group A 10 mg/kg I.V., 1 hour",0.345 ± 0.107 ppm
same,(S)-Methoprene Concentration in Blood,"[1]; Group A 10 mg/kg I.V., 2 hours",0.113 ± 0.028 ppm
same,(S)-Methoprene Concentration in Blood,"[1]; Group A 10 mg/kg I.V., 3 hours",0.079 ± 0.002 ppm
same,(S)-Methoprene Concentration in Blood,"[1]; Group A 10 mg/kg I.V., 4 hours",0.066 ± 0.028 ppm
same,(S)-Methoprene Concentration in Blood,"[1]; Group A 10 mg/kg I.V., 5 hours",0.048 ± 0.001 ppm
same,(S)-Methoprene Concentration in Blood,"[1]; Group A 10 mg/kg I.V., 6 hours",0.046 ± 0.027 ppm
same,(S)-Methoprene Concentration in Blood,"[1]; Group A 10 mg/kg I.V., 7 hours",0.019 ± 0.008 ppm
same,(S)-Methoprene Concentration in Blood,"[1]; Group B 10 mg/kg oral, 1 hour",0.112 ± 0.038 ppm
same,(S)-Methoprene Concentration in Blood,"[1]; Group B 10 mg/kg oral, 2 hours",0.264 ± 0.122 ppm
same,(S)-Methoprene Concentration in Blood,"[1]; Group B 10 mg/kg oral, 3 hours",0.202 ± 0.065 ppm
same,(S)-Methoprene Concentration in Blood,"[1]; Group B 10 mg/kg oral, 4 hours",0.130 ± 0.066 ppm
same,(S)-Methoprene Concentration in Blood,"[1]; Group B 10 mg/kg oral, 5 hours",0.052 ± 0.026 ppm
same,(S)-Methoprene Concentration in Blood,"[1]; Group B 10 mg/kg oral, 6 hours",0.045 ± 0.014 ppm
same,(S)-Methoprene Concentration in Blood,"[1]; Group B 10 mg/kg oral, 7 hours",0.020 ± 0.005 ppm
same,(S)-Methoprene Concentration in Blood,"[1]; Group B 10 mg/kg oral, 8 hours",0.021 ± 0.009 ppm
same,(S)-Methoprene Concentration in Blood,"[1]; Group C 100 mg/kg oral, 1 hour",0.165 ± 0.070 ppm
same,(S)-Methoprene Concentration in Blood,"[1]; Group C 100 mg/kg oral, 2 hours",3.487 ± 1.324 ppm
same,(S)-Methoprene Concentration in Blood,"[1]; Group C 100 mg/kg oral, 3 hours",1.302 ± 0.409 ppm
same,(S)-Methoprene Concentration in Blood,"[1]; Group C 100 mg/kg oral, 4 hours",1.504 ± 0.533 ppm
same,(S)-Methoprene Concentration in Blood,"[1]; Group C 100 mg/kg oral, 5 hours",0.930 ± 0.449 ppm
same,(S)-Methoprene Concentration in Blood,"[1]; Group C 100 mg/kg oral, 6 hours",0.527 ± 0.341 ppm
same,(S)-Methoprene Concentration in Blood,"[1]; Group C 100 mg/kg oral, 7 hours",0.608 ± 0.292 ppm
same,(S)-Methoprene Concentration in Blood,"[1]; Group C 100 mg/kg oral, 8 hours",0.483 ± 0.221 ppm
